In BindingDB's records for doi:10.7270/Q2KH0KWR (Burnham Center For Chemical Genomics, 2012) one finds IC50 data, which are given here for 51 compounds.

Some results are limits rather than exact numbers.

This test concerns the target T1, Tyrosine-protein phosphatase non-receptor type 5 (Homo sapiens, UniProt P54829).
T1 sequence (P54829 whole entry): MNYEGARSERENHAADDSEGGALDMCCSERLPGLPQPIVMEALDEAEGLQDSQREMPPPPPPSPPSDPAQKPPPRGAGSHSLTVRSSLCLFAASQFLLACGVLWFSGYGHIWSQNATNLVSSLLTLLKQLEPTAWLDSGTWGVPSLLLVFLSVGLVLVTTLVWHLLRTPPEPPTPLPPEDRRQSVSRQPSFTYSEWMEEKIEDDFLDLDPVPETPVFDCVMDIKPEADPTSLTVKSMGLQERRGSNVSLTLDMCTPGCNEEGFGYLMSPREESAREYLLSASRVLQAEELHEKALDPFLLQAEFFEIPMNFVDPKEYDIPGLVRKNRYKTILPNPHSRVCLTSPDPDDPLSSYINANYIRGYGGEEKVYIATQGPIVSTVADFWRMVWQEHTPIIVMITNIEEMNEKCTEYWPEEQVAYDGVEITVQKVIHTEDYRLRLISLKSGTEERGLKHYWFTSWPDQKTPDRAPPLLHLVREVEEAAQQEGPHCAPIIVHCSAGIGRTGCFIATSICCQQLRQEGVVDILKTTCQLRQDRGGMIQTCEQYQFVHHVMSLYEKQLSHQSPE
Nature of the test: PTPN5 inhibition measured colorimetrically – biochemical, colorimetric absorbance, orthogonal assay for STEP inhibitor project, dose response (AID 624207).

[1] abbreviates: inactive by the depositor's call.

`O=C(NN=Cc1ccc(F)cc1)c1cc(-c2ccc3c(c2)OCO3)n[nH]1` [3-(1,3-benzodioxol-5-yl)-N-[(E)-(4-fluorobenzylidene)amino]-1H-pyrazole-5-carboxamide]: the IC50 (usually the midpoint of a concentration-inhibition curve) was > 80 µM.

`COc1ccc(NC(=S)N(CCC(C)C)C2CCN(C(C)C)CC2)cc1Cl` [3-(3-chloranyl-4-methoxy-phenyl)-1-(3-methylbutyl)-1-(1-propan-2-ylpiperidin-4-yl)thiourea] showed an IC50 of 10.6 µM.

As to `COc1ccc(-n2nc(C(=O)NCC(=O)Nc3ccccn3)c3ccccc3c2=O)cc1Cl` [3-(3-chloranyl-4-methoxy-phenyl)-4-oxidanylidene-N-[2-oxidanylidene-2-(pyridin-2-ylamino)ethyl]phthalazine-1-carboxamide], the IC50 was > 80 µM.

Turning to `Cc1ccc(Cn2cc(C=O)c(-c3ccc(C)cc3)n2)cc1` [3-(4-methylphenyl)-1-[(4-methylphenyl)methyl]-4-pyrazolecarboxaldehyde], the IC50 is > 80 µM.

`Cc1c(CCC(=O)O)c(=O)oc2c(C)c(OCc3ccccc3Cl)ccc12` [3-[7-[(2-chlorophenyl)methoxy]-4,8-dimethyl-2-oxochromen-3-yl]propanoic acid] registered an IC50 of 6.4 µM.

With `Cc1c(CCC(=O)O)c(=O)oc2c(C)c(OCc3cc4c(cc3Cl)OCO4)ccc12` [3-[7-[(6-chloranyl-1,3-benzodioxol-5-yl)methoxy]-4,8-dimethyl-2-oxidanylidene-chromen-3-yl]propanoic acid], the IC50 was > 80 µM.

Regarding `O=C(CSc1nc(-c2ccc(F)cc2)nc2c1Cc1ccccc1O2)Nc1cccc(C(=O)O)c1` [3-[({[2-(4-fluorophenyl)-5H-chromeno[2,3-d]pyrimidin-4-yl]thio}acetyl)amino]benzoic acid], the IC50 was found to be 1.55 µM.

Under setting [1], `O=C(N/N=C/c1cccnc1)c1ccc(NC(=O)c2cccc(Cl)c2)cc1` [3-chloro-N-[4-[oxo-[(2E)-2-(3-pyridinylmethylidene)hydrazinyl]methyl]phenyl]benzamide] yielded an IC50 of 45.6 µM.

Take `Cn1c(=O)[nH]c(=O)c2c1nc(SCCN1CCCCC1)n2CCCc1ccccc1` [3-methyl-7-(3-phenylpropyl)-8-[2-(1-piperidinyl)ethylthio]purine-2,6-dione]: the IC50 under setting [1] stood at 60.5 µM. This IC50 and that of the compound before are within 1.5-fold of each other.

In the case of `O=C1Nc2ccc3sc4ccccc4c3c2C1=O` [3H-6-Thia-3-aza-cyclopenta[c]fluorene-1,2-dione], the IC50 is > 80 µM.

Take `COc1cc(/C=C2/C(=O)NN(c3cccc(C)c3)C2=O)cc([N+](=O)[O-])c1O` [4-(4-hydroxy-3-methoxy-5-nitrobenzylidene)-1-(3-methylphenyl)-3,5-pyrazolidinedione]: the IC50 is > 80 µM.

For `CN(C)c1ccc(C(=O)OCC(=O)Nc2ccc(S(N)(=O)=O)cc2)cc1` [4-(dimethylamino)benzoic acid [2-oxo-2-(4-sulfamoylanilino)ethyl] ester], 7.9 µM corresponded to half-maximal inhibition (IC50).

Turning to `Clc1ccc(Cl)c(-c2nc(-c3ccncc3)no2)c1` [4-[5-(2,5-dichlorophenyl)-1,2,4-oxadiazol-3-yl]pyridine], the IC50 was > 80 µM.

On to `S=c1[nH]nc(-c2cccnc2)n1N=Cc1ccc(Br)s1` [4-[(E)-(5-bromothiophen-2-yl)methylideneamino]-3-pyridin-3-yl-1H-1,2,4-triazole-5-thione], for which the IC50 was > 80 µM.

`CCOC(=O)CN1C(=O)S/C(=C/c2ccc(OCc3ccc(C(=O)O)cc3)cc2)C1=O` [4-[[4-[(E)-[3-(2-ethoxy-2-oxoethyl)-2,4-dioxo-5-thiazolidinylidene]methyl]phenoxy]methyl]benzoic acid]: the 50% inhibitory concentration (IC50) was > 80 µM.

As for `O=C(N/N=C/c1cccc([N+](=O)[O-])c1)c1ccc(Br)cc1` [4-bromo-N-[(E)-(3-nitrophenyl)methylideneamino]benzamide], the IC50 under setting [1] is 21.5 µM.

With `O=[N+]([O-])c1ccc(O)c(Nc2ncnc3ccccc23)c1` [4-nitro-2-(4-quinazolinylamino)phenol], the IC50 is > 80 µM.

For the compound `CCc1c(C)[nH]n(-c2ccc(Oc3ccccc3)c(S(=O)(=O)O)c2)c1=O` [5-(4-ethyl-5-methyl-3-oxo-1H-pyrazol-2-yl)-2-phenoxybenzenesulfonic acid], the IC50 was > 80 µM.

As for `Cc1ccc(S(=O)(=O)Cc2ccc(C(=O)O)o2)cc1` [5-(tosylmethyl)-2-furoic acid], the IC50 is > 80 µM.

`O=C(N/N=C/c1ccc(Br)cc1)c1ccc(Br)o1` [5-bromanyl-N-[(E)-(4-bromophenyl)methylideneamino]furan-2-carboxamide] yielded an IC50 under setting [1] of 24.1 µM. This lies in the double-digit micromolar range.

For the compound `N#C/C(=C\c1ccc(OC(=O)c2ccc(Cl)s2)cc1)c1nc2ccccc2[nH]1` [5-chloro-2-thiophenecarboxylic acid [4-[(E)-2-(1H-benzimidazol-2-yl)-2-cyanoethenyl]phenyl] ester], the IC50 was > 80 µM.

`NC(=O)c1cc2ccccc2o/c1=N\NC(=O)c1ccccc1O` [(2Z)-2-[[(2-hydroxyphenyl)-oxomethyl]hydrazinylidene]-1-benzopyran-3-carboxamide]: it took 13.7 µM to reach half-maximal inhibition (IC50).

Consider `OCCN1CCN(C(=S)c2ccc(Cl)c(Cl)c2)CC1` [(3,4-dichlorophenyl)-[4-(2-hydroxyethyl)-1-piperazinyl]methanethione], for which the IC50 under setting [1] came out at 22 µM.

For `C=c1c(O)c(O)c(=C2C(=O)C(=O)C(C)C(=O)C2=O)c(O)c1O` (stereo unspecified) [(3E)-5-hydroxy-6-methyl-3-(2,3,5-trihydroxy-4-methyl-6-oxo-1-cyclohexa-2,4-dienylidene)cyclohex-5-ene-1,2,4-trione], the IC50 was > 80 µM.

On to `S=C(c1ccc(Br)cc1)N1CCN(Cc2ccccc2)CC1` [(4-bromophenyl)-[4-(phenylmethyl)-1-piperazinyl]methanethione], for which half-maximal inhibition under setting [1] (IC50) required 54.9 µM.

`CCOc1ccc(C(=S)N2CCN(C)CC2)cc1` [(4-ethoxyphenyl)-(4-methyl-1-piperazinyl)methanethione] registered an IC50 under setting [1] of 44.3 µM.

For the compound `O=C1C(=O)N(CCCO)C(c2ccc(Br)cc2)C1C(=O)c1ccc(Br)cc1` (stereo unspecified) [(4E)-5-(4-bromophenyl)-4-[(4-bromophenyl)-oxidanyl-methylidene]-1-(3-oxidanylpropyl)pyrrolidine-2,3-dione], the IC50 amounted to 41.5 µM. This lies in the double-digit micromolar range.

The compound `COc1cc(C(=S)N2CCCCC2)ccc1O` [(4Z)-2-methoxy-4-[piperidin-1-yl(sulfanyl)methylidene]cyclohexa-2,5-dien-1-one] displayed an IC50 of 15.5 µM.

For the compound `Cc1ccc(C(=S)N2CCN(Cc3ccccc3)CC2)s1` [(5-methyl-2-thiophenyl)-[4-(phenylmethyl)-1-piperazinyl]methanethione], the IC50 under setting [1] was determined as 32 µM.

As for `COc1cccc(N2[C@@H](CC(=O)O)c3ccc(/C=C/C(=O)O)cc3S2(=O)=O)c1` [(E)-3-[(3S)-3-(carboxymethyl)-2-(3-methoxyphenyl)-1,1-dioxo-3H-1,2-benzothiazol-6-yl]prop-2-enoic acid], the IC50 was > 80 µM.

For `O=C(NCCCn1ccnc1)C(Cc1ccccc1)N1C(=O)c2ccccc2C1=O` (stereo unspecified) [MLS000040026], the IC50 under setting [1] stood at 72.3 µM.

Take `Cc1nnc2sc(-c3ccc(NC(=O)c4ccc(-c5ccc(Cl)cc5Cl)o4)cc3)nn12` [MLS000050448]: the IC50 is > 80 µM.

On to `CCc1ccc(OCC(=O)Nc2ccc(-c3nc4ccccc4o3)c(O)c2)cc1` [MLS000109444], for which the IC50 is > 80 µM.

As for `C=CC1=C(C(=O)O)N2C(=O)C(NC(=O)Cc3ccccc3)C2SC1` (stereo unspecified) [MLS000123928], the IC50 was > 80 µM.

In turn, `COc1ccccc1NS(=O)(=O)c1cc(NC(=S)NCCN2CCOCC2)ccc1N1CCOCC1` [MLS000409155] registered an IC50 under setting [1] of 29.7 µM. This lies in the double-digit micromolar range.

As for `S=C1N=C2C(=C3SCCS3)CCCC2C(c2ccccc2)N1` (stereo unspecified) [MLS000516376], the IC50 came out at 72.8 µM.

`CCN(CC)P(=O)(NC(=O)C(Cl)(Cl)Cl)N(CC)CC` [MLS000564159]: 77.5 µM corresponded to half-maximal inhibition (IC50).

For `CCOc1ccc(C(=O)Nc2cc(-c3nc4ccccc4[nH]3)ccc2Cl)cc1[N+](=O)[O-]` [MLS000574482], the IC50 was > 80 µM.

Turning to `O=C(N/N=C/c1ccc(OC(=O)c2cccs2)cc1)c1cccc(F)c1` [MLS000576933], the midpoint of inhibition under setting [1], the IC50, lay at 25.5 µM.

With `OCCN1CCN(C(=S)c2ccc(Br)cc2)CC1` [MLS000577024], the midpoint of inhibition under setting [1], the IC50, lay at 57 µM. Compared with the last compound, the IC50 is about 2.2-fold higher.

Regarding `COCCN(C(=S)Nc1c(C)cc(C)cc1C)C(C)c1cccnc1` (stereo unspecified) [MLS000584539], the IC50 was > 80 µM.

In the case of `O=C(N/N=C/c1ccc(Cl)c([N+](=O)[O-])c1)c1ccc2c(c1)OCCO2` [MLS000587937], the IC50 stood at 15.7 µM.

Regarding `CCN1CCN(C(=S)c2ccc(Cl)cc2)CC1` [MLS000594090], inhibition under setting [1] was half-maximal at 25.5 µM (IC50).

As for `NS(=O)(=O)c1ccc(N/C(S)=N\CCc2ccccc2)cc1` [MLS000621468], the IC50 is > 80 µM.

`CCN1CCN(C(=S)c2ccc(O)cc2)CC1` [MLS000621546] yielded an IC50 of 33.8 µM.

For `CN1CCN(C(=S)C(=O)Nc2ccc(Br)cc2)CC1` [MLS000665240], inhibition was half-maximal at 12.6 µM (IC50).

Compound `CN(C)c1ccc(C(=S)N2CCN(Cc3ccccc3)CC2)cc1` [MLS000679877] had an IC50 under setting [1] of 56.9 µM.

`COC(=O)Nc1sc2c(c1C(N)=O)CCC(C)C2` (stereo unspecified) [MLS000683996] registered an IC50 of 13.3 µM. This counts as double-digit micromolar.

Consider `O=C(N/N=C/c1coc2ccccc2c1=O)c1cc2ccccc2o1` [MLS000700471], for which the IC50 is > 80 µM.

In the case of `O=C(COc1ccc(/C=N/NC(=O)c2ccc(O)cc2)cc1)Nc1cccc([N+](=O)[O-])c1` [MLS000714465], the midpoint of inhibition, the IC50, lay at 20 µM.

Regarding `COc1ccc(NC(=S)N(CCCN2CCC(C)CC2)Cc2cccs2)cc1Cl` [MLS000729725], the IC50 is > 80 µM.
